# According to patent US11813306B2, “Cyclic tetramer compounds as proprotein convertase subtilisin/kexin type 9 (PCSK9) inhibitors for the treatment of metabolic disorders” (NOVARTIS AG, priority 2018, dated 2023):
# Target: human PCSK9 (Homo sapiens, UniProt Q8NBP7)
# Assay: PCSK9 ligand binding assay (TR-FRET): interference with binding of human PCSK9 to human LDLR
# Conditions: for IC50: Human PCSK9 Alexa Fluor 647 / Human LDLR extracellular domain-Europium Kryptate; for Max % inhibition: efficacy (Amax), 100% = 1 uM unlabeled human PCSK9, 0% = DMSO
# Summary of the method: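 Read-out was TR-FRET ratio (665 nm over 615 nm, 330 nm excitation) between Alexa Fluor 647-human PCSK9 (16 nM added) and Europium Kryptate-human LDLR ectodomain (4 nM added). Compound and PCSK9 were mixed 30 min before LDLR, then incubated 2 h. Inhibition was normalised to DMSO and unlabelled-PCSK9 controls, giving IC50 and Amax.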
# Chain of human PCSK9 (Q8NBP7 153-692): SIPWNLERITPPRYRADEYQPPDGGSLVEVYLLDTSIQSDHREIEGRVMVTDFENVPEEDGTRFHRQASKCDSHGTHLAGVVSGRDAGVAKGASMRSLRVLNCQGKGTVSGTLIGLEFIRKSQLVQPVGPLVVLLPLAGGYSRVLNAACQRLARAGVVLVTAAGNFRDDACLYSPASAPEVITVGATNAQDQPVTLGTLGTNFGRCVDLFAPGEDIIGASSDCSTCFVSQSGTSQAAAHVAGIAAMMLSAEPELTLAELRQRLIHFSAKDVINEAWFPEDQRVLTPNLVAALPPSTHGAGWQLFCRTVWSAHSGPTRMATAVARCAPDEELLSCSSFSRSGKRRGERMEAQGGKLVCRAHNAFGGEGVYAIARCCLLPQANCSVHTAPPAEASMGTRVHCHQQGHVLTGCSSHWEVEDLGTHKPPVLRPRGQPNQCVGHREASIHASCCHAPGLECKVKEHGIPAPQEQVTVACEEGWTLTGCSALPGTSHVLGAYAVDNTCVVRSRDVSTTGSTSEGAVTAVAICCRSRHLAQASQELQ
# Chain of human PCSK9 (Q8NBP7 31-152 partner limits assumed): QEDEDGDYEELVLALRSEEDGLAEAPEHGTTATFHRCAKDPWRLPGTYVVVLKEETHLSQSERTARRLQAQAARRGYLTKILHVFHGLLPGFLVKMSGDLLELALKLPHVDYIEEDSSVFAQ
SMILES,IC50 [nM],Max % inhibition [%]
"C[C@H]1C(=O)N[C@@H](CO)C(=O)N[C@@]2(Cc3ccc(Cl)cc3)CCCN(C2)C(=O)[C@H](CC2CC2)CC(=O)N1Cc1ccc(Cl)cc1Oc1ccc(-c2cnc(CN(C)C)n2C)cc1 [Compound 42, (3R, 7S, 10S, 13R)-6-(4-chloro-2-(4-(2-((dimethylamino)methyl)-1-methyl-1H-imidazol-5-yl)phenoxy)benzyl)-13-(4-chlorobenzyl)-3-(cyclopropylmethyl)-10-(hydroxymethyl)-7-methyl-1,6,9,12-tetraazabicyclo[11.3.1]heptadecone-2,5,8,11-tetraone]",0.596,108.3
"C[C@@H](O)[C@@H]1NC(=O)[C@H](C)N(Cc2ccc(Cl)cc2Oc2ccc(-c3cnc(CN(C)C)n3C)cc2)C(=O)C[C@@H](CC(F)(F)F)C(=O)N2CCC[C@@](Cc3ccc(Cl)cc3)(C2)NC1=O [Compound 97, (3S, 7S, 10S, 13R)-6-(4-chloro-2-(4-(2-((dimethylamino)methyl)-1-methyl-1H-imidazol-5-yl)phenoxy)benzyl)-13-(4-chlorobenzyl)-10-((R)-1-hydroxyethyl)-7-methyl-3-(2,2,2-trifluoroethyl)-1,6,9,12-tetraazabicyclo[11.3.1]heptadecane-2,5,8,1-tetraone]",2.08,91.2
"C[C@H]1C(=O)N[C@@H](CO)C(=O)N[C@@]2(Cc3ccc(Cl)cc3)CCCN(C2)C(=O)[C@H](CC(F)(F)F)CC(=O)N1Cc1ccc(Cl)cc1Oc1ccc(-c2cnc(CN(C)C)n2C)cc1 [Compound 83, (3S,7S,10S,13R)-6-(4-Chloro-2-(4-(2-((dimethylamino)methyl)-1-methyl-1H-imidazol-5-yl)phenoxy)benzyl)-13-(4-chlorobenzyl)-10-(hydroxymethyl)-7-methyl-3-(2,2,2-trifluoroethyl)-1,6,9,12-tetraazabicyclo[11.3.1]heptadecane-2,5,8,11-tetraone]",0.347,112.4
C[C@H]1C(=O)N[C@@H](CO)C(=O)N[C@@]2(Cc3ccc(Cl)cc3)CCCN(C2)C(=O)[C@H]([C@@H]2CCc3ccccc32)CC(=O)N1Cc1cc(F)ccc1Oc1ccc(-c2cnc(CN(C)C)n2C)cc1 [Compound 73],1.36,95.0
"C[C@H]1C(=O)N[C@@H](CO)C(=O)N(C)[C@@]2(Cc3ccc(Cl)cc3)CCCN(C2)C(=O)[C@H](CC(F)(F)F)CC(=O)N1Cc1c(F)cc(Cl)cc1Oc1ccc(-c2cnc(CN(C)C)n2C)cc1 [Compound 82, (3S,7S,10S,13R)-6-(4-Chloro-2-(4-(2-((dimethylamino)methyl)-1-methyl-1H-imidazol-5-yl)phenoxy)-6-fluorobenzyl)-13-(4-chlorobenzyl)-10-(hydroxymethyl)-7,12-dimethyl-3-(2,2,2-trifluoroethyl)-1,6,9,12-tetraazabicyclo[11.3.1]heptadecane-2,5,8,11-tetraone]",0.37,108.5
"C[C@H]1C(=O)N[C@@H](CO)C(=O)N[C@@]2(Cc3ccc(Cl)cc3)CCCN(C2)C(=O)[C@H](Cc2ccccc2)CC(=O)N1Cc1ccc(Cl)cc1Oc1ccc(-c2cnc(CN(C)C)n2C)c(F)c1 [Compound 43, (3R, 7S, 10S, 13R)-3-benzyl-6-(4-chloro-2-(4-(2-((dimethylamino)methyl)-1-methyl-1H-imidazol-5-yl)-3-fluorophenoxy)benzyl)-13-(4-chlorobenzyl)-10-(hydroxymethyl)-7-methyl-1,6,9,12-tetraazabicyclo[11.3.1]heptadecane-2,5,8,11-tetraone]",0.405,110.0
"C[C@H]1C(=O)N[C@@H](CO)C(=O)N[C@@]2(Cc3ccc(Cl)cc3)CCCN(C2)C(=O)[C@H]([C@@H]2CCc3ccccc32)CC(=O)N1Cc1ccc(Cl)cc1Oc1ccc(-c2cnc(CN(C)C)n2C)cc1.Cl [Compound 84, (3S, 7S, 10S, 13R)-6-(4-chloro-2-(4-(2-((dimethylamino)methyl)-1-methyl-1H-imidazol-5-yl)phenoxy)benzyl)-13-(4-chlorobenzyl)-3-((S)-2,3-dihydro-1H-inden-1-yl)-10-(hydroxymethyl)-7-methyl-1,6,9,12-tetraazabicyclo[11.3.1]heptadecane-2,5,8,11-tetraone]",1.68,101.9

# Now from value to molecule:
IC50 [nM],Max % inhibition [%],SMILES
0.57,111.4,"C[C@H]1C(=O)N[C@@H](CO)C(=O)N[C@@]2(Cc3ccc(Cl)cc3)CCCN(C2)C(=O)[C@H](CC(C)(F)F)CC(=O)N1Cc1c(F)cc(Cl)cc1Oc1ccc(-c2cnc(CN(C)C)n2C)cc1 [Compound 146, (3S, 7S, 10S, 13R)-6-(4-chloro-2-(4-(2-((dimethylamino)methyl)-1-methyl-1H-imidazol-5-yl)phenoxy)-6-fluorobenzyl)-13-(4-chlorobenzyl)-3-(2,2-difluoropropyl)-10-(hydroxymethyl)-7-methyl-1,6,9,12-tetraazabicyclo[11.3.1]heptadecane-2,5,8,11-tetraone]"
612,100.1,"C[C@H](NCc1ccc(Cl)cc1Oc1ccc(-c2cnc(CN(C)C)n2C)cc1)C(=O)N[C@H]1COC(=O)C[C@@H](Cc2ccccc2)C(=O)N2CCC[C@@](Cc3ccc(Cl)cc3)(C2)N(C)C1=O [Compound 126, (2S)-N-((3R, 8S, 11R)-3-benzyl-11-(4-chlorobenzyl)-10-methyl-2,5,9-trioxo-6-oxa-1,10-diazabicyclo[9.3.1]pentadecan-8-yl)-2-((4-chloro-2-(4-(2-((dimethylamino)methyl)-1-methyl-1H-imidazol-5-yl)phenoxy)benzyl)amino)propanamide]"
2.08,98.4,"COc1cccc2c1OC[C@@H]2[C@@H]1CC(=O)N(Cc2ccc(Cl)cc2Oc2ccc(-c3cnc(CN4CCCC4)n3C)cc2)[C@@H](C)C(=O)N[C@@H](CO)C(=O)N(C)[C@H](Cc2ccc(Cl)cc2)CN(C)C1=O.Cl [Compound 103, (2S, 5S, 8R, 12S)-1-(4-chloro-2-(4-(1-methyl-2-(pyrrolidin-1-ylmethyl)-1H-imidazol-5-yl)phenoxy)benzyl)-8-(4-chlorobenzyl)-5-(hydroxymethyl)-12-((R)-7-methoxy-2,3-dihydrobenzofuran-3-yl)-2,7,10-trimethyl-1,4,7,10-tetraazacyclotetradecane-3,6,11,14-tetraone]"
0.95,101.4,"C[C@H]1C(=O)N[C@@H](CO)C(=O)N[C@@]2(Cc3ccc(Cl)cc3)CCCN(C2)C(=O)[C@H](CC2CCC2)CC(=O)N1Cc1c(F)cc(Cl)cc1Oc1ccc(-c2cnc(CN(C)C)n2C)cc1 [Compound 155, (3R, 7S, 10S, 13R)-6-(4-chloro-2-(4-(2-((dimethylamino)methyl)-1-methyl-1H-imidazol-5-yl)phenoxy)-6-fluorobenzyl)-13-(4-chlorobenzyl)-3-(cyclobutylmethyl)-10-(hydroxymethyl)-7-methyl-1,6,9,12-tetraazabicyclo[11.3.1]heptadecane-2,5,8,11-tetraone]"
6.12,97.0,"COC[C@@H]1NC(=O)[C@H](CCF)N(Cc2ccc(Cl)cc2Oc2ccc(-c3cnc(CN(C)C)n3C)cc2)C(=O)C[C@@H](Cc2ccccc2)C(=O)N2CCC[C@@](Cc3ccc(Cl)cc3)(C2)NC1=O.Cl [Compound 105, (3R,7S,10S,13R)-3-benzyl-6-(4-chloro-2-(4-(2-((dimethylamino)methyl)-1-methyl-1H-imidazol-5-yl)phenoxy)benzyl)-13-(4-chlorobenzyl)-7-(2-fluoroethyl)-10-(methoxymethyl)-1,6,9,12-tetraazabicyclo[11.3.1]heptadecane-2,5,8,11-tetraone hydrochloride]"
